The values that follow come from US9510598B2, “Nitrogen-containing heterocyclic compounds for plant disease control” (BAYER CROPSCIENCE AG, priority 2012, dated 2016).

Series [1] is classed as physicochemical. As to conditions: for chromatographic logP: pH 2.7.
The test system of series [2] is Botrytis cinerea. In words: In vivo preventive test on Botrytis cinerea (grey mould). As to conditions: 500 ppm; gherkin plants sprayed 24 hours before contamination; grading 4-5 days after contamination vs control plants. How it is done:
Gherkin plants (“Vert petit de Paris” variety), sown in starter cups on a 50/50 peat soil-pozzolana substrate and grown at 24° C., are treated at the Z11 cotyledon stage by spraying with the active ingredient prepared as described above. Plants, used as controls, are treated with the mixture of acetone/tween/DMSO/water not containing the active material. After 24 hours, the plants are contaminated by spraying the cotyledons with an aqueous suspension of cryopreserved Botrytis cinerea spores (50 000 spores per ml). The spores are suspended in a nutrient solution composed of 10 g/L of PDB, 50 g/L of D-Fructose, 2 g/L of NH4NO3 and 1 g/L of KH2PO4. The contaminated gherkin plants are incubated at 17° C. and at 80% relative humidity. Grading (% of efficacy) is carried out 4-5 days after the contamination, in comparison with the control plants.

Series [3] has as its system Septoria tritici. In words: In vivo preventive test on Septoria tritici (leaf spot on wheat). As to conditions: 500 ppm; wheat plants sprayed 24 hours before contamination; grading 21 to 28 days after contamination vs control plants. The method, boiled down: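 Scipion wheat at 1-leaf stage sprayed with compound, controls receiving acetone/tween/DMSO/water vehicle; 24 h later leaves inoculated with Septoria tritici spores (500 000 spores per ml). Efficacy (%) graded versus control plants 21 to 28 days after contamination.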

In series [4] the test system is Sphaerotheca fuliginea. Kind of series: In vivo preventive test on Sphaerotheca fuliginea (powdery mildew on cucurbits). As to conditions: 500 ppm; gherkin plants sprayed 24 hours before contamination; grading 12 days after contamination vs control plants. Here is the method: Gherkin plants (“Vert petit de Paris” variety), sown in starter cups on a 50/50 peat soil-pozzolana substrate and grown at 24° C., are treated at the Z11 cotyledon stage by spraying with the active ingredient prepared as described above. Plants, used as controls, are treated with the mixture of acetone/tween/DMSO/water not containing the active material. After 24 hours, the plants are contaminated by spraying the cotyledons with an aqueous suspension of Sphaerotheca fuliginea spores (100 000 spores per ml). The spores are collected from infected plants. […] Grading (% of efficacy) is carried out 12 days after the contamination, in comparison with the control plants.

The mark [5] stands for this setting: method [a]: HPLC/LC-MS on reversed phase at pH 2.7, 0.1% formic acid in water / acetonitrile, gradient 10% to 95% acetonitrile.
Where [6] appears, read: HPLC on reversed phase columns, method [a]: pH 2.7, 0.1% formic acid in water / acetonitrile, linear gradient 10% to 95% acetonitrile.
Setting [7] is: method [a]: HPLC/LC-MS on reversed phase at pH 2.7, 0.1% formic acid in water / acetonitrile, linear gradient 10% to 95% acetonitrile.

Each structure is given as a SMILES string. Several values for one entry are separate records, joined by “and”; a condition that tells them apart may be missing. Equal entries are not always repeated. Where two headings read alike, the source gives them in different places.

In the case of `CCOCCCNC(=O)C1(OC)CC(c2ccc3ncc(I)cc3c2)=NO1` (racemic) [compound 448], the “log P” value in series [1] (setting [5]) was 2.80[a]. The “% of efficacy (protection)” value is listed as 98% in series [2], 98% in series [3] and 100% in series [4].

Regarding `C#Cc1cnc2c(Cl)cc(C3=NOC(C)(C(=O)NCCCOCC)C3)cc2c1` (racemic) [compound 545], in series [1] (setting [6]), the “log P” value was 2.94[a]. Also, the “% of efficacy (protection)” value in series [2], in series [3] and in series [4] was 100% each time.

For `C#Cc1cnc2c(C)cc(C3=NOC(C)(C(=O)NCCCOCC)C3)cc2c1` (racemic) [compound 546], the “log P” value in series [1] (setting [6]) was 3.04[a]. For the same compound, the “% of efficacy (protection)” value in series [2] is 100%; in series [3], 83%; in series [4], 100%.

Consider `CC(C)NC(=O)C1(C)CC(c2ccc3ncc(I)cc3c2)=NO1` (stereo not shown) [Compound No. 38, 3-(3-iodoquinolin-6-yl)-N-isopropyl-5-methyl-4,5-dihydro-1,2-oxazole-5-carboxamide], for which, in series [1], the chromatographic logP worked out at 2.88. For the same compound, the entries for the “% of efficacy (protection)” value in series [2], in series [3] and in series [4] were 100%, 100% and 97%, respectively.

In series [1], `CC(C)NC(=O)C1(C)CC(c2ccc3ncc(Cl)cc3c2)=NO1` (stereo not shown) [Compound No. 55] returned a chromatographic logP of 2.61. Also, the “% of efficacy (protection)” value is 99% in series [2]; 100% in series [3]; 94% and 98% in series [4].

In the case of `CCc1cnc2ccc(C3=NOC(C)(C(=O)NC(C)C)C3)cc2c1` (stereo not shown) [Compound No. 259], in series [1], the chromatographic logP came out at 1.94. Besides, the results for the “% of efficacy (protection)” value in series [2], in series [3] and in series [4] were 75%, 100% and 94%, respectively.

Consider `CCn1cc(CNC(=O)C2(C)CC(c3cc4cc(Br)cnc4c(F)c3F)=NO2)c(C)n1` (stereo not shown) [compound 17], for which the “Log P” value in series [1] (method [a]: HPLC/LC-MS on reversed phase at pH 2.7, 0.1% formic acid in water and acetonitrile, linear gradient 10% to 95% acetonitrile) is 2.69^[a]. In addition, the results for the “% of efficacy (protection)” value in series [2], in series [3] and in series [4] were 100%, 100% and 85%, respectively.

On to `CCOCCCNC(=O)C1(C)CC(c2ccc3ncc(Br)cc3c2)=NO1` (stereo not shown) [compound 32], for which, in series [1] (setting [7]), the “log P” value is 2.69^[a]. Also, the “% of efficacy (protection)” value in series [2] was 98%; in series [3] it was 79% and 97%; in series [4], 100%.

As to `COc1cnc2ccc(C3=NOC(C)(C(=O)NC(C)C)C3)cc2c1` (stereo not shown) [compound 53], in series [1] (setting [7]), the “log P” value is 2.08^[a]. Also, the “% of efficacy (protection)” value in series [2] is 99%; in series [3], 97%; in series [4] it was 88%.

For `CCC1(C(=O)NC(C)C)CC(c2ccc3ncc(Br)cc3c2)=NO1` (stereo not shown) [compound 66], the “log P” value in series [1] (setting [7]) was 3.13^[a]. Moreover, the “% of efficacy (protection)” value in series [2] was 100%; in series [3], 100%; in series [4] it was 98%.

`CCOCCCNC(=O)C1(CC)CC(c2ccc3ncc(Br)cc3c2)=NO1` (stereo not shown) [compound 68]: in series [1] (setting [7]), the “log P” value was 3.11^[a]. The “% of efficacy (protection)” value in series [2] came to 98%; in series [3] it was 97%; in series [4], 98%.

Turning to `C#Cc1cnc2ccc(C3=NOC(C)(C(=O)NCc4cccnc4)C3)cc2c1` (stereo not shown) [compound 103], the “log P” value in series [1] (setting [7]) is 1.26^[a]. Moreover, the “% of efficacy (protection)” value in series [2] is on record as 98%; in series [3], 75%; in series [4], 78%.

As to `C#Cc1cnc2ccc(C3=NOC(C)(C(=O)NC4CCC4)C3)cc2c1` (stereo not shown) [compound 120], the “log P” value in series [1] (setting [7]) is 2.58^[a]. Further, the figures for the “% of efficacy (protection)” value in series [2], in series [3] and in series [4] were 100%, 100% and 94%, respectively.

Consider `C#Cc1cnc2ccc(C3=NOC(C)(C(=O)NCC4COC(C)(C)O4)C3)cc2c1` (stereo not shown) [compound 125], for which, in series [1] (setting [7]), the “log P” value is 2.35^[a]. The “% of efficacy (protection)” value in series [2] came to 100%; in series [3], 100%; in series [4] it was 98%.

For the compound `C#Cc1cnc2ccc(C3=NOC(C)(C(=O)NCC4CCCO4)C3)cc2c1` (stereo not shown) [compound 132], the “log P” value in series [1] (setting [7]) is 2.17^[a]. Further, the “% of efficacy (protection)” value in series [2] amounted to 98%; in series [3], 100%; in series [4] it was 94%.

Turning to `C#Cc1cnc2ccc(C3=NOC(C)(C(=O)NCc4cncn4C)C3)cc2c1` (stereo not shown) [compound 155], the “log P” value in series [1] (setting [7]) is 1.91^[a]. Moreover, the “% of efficacy (protection)” value is recorded as 100% in series [2], 100% in series [3] and 89% in series [4].

On to `C#Cc1cnc2ccc(C3=NOC(C)(C(=O)NCc4cnn(Cc5ccccc5)c4)C3)cc2c1` (stereo not shown) [compound 185], for which, in series [1] (setting [7]), the “log P” value is 2.64^[a]. Besides, the “% of efficacy (protection)” value in series [2] is recorded as 95%; in series [3], 86%; in series [4], 78%.

Consider `C#Cc1cnc2ccc(C3=NOC(C)(C(=O)NC4CC4C4CC4)C3)cc2c1` (stereo not shown) [compound 216], for which the “log P” value in series [1] (setting [7]) is 2.92^[a]. Also, the figures for the “% of efficacy (protection)” value in series [2], in series [3] and in series [4] were 99%, 100% and 98%, respectively.

In the case of `CC(NC(=O)C1(C)CC(c2ccc3ncc(Br)cc3c2)=NO1)C1=NOCC1` (stereo not shown) [compound 293], in series [1] (setting [6]), the “log P” value is 2.34[a]. Besides, the results for the “% of efficacy (protection)” value in series [2], in series [3] and in series [4] were 97%, 96% and 90%, respectively.

As to `Cc1nc(C)c(C(C)NC(=O)C2(C)CC(c3ccc4ncc(Br)cc4c3)=NO2)s1` (stereo not shown) [compound 296], the “log P” value in series [1] (setting [6]) is 2.46[a]. The “% of efficacy (protection)” value in series [2] is listed as 97%; in series [3] it was 100%; in series [4], 100%.

As to `C#Cc1cnc2ccc(C3=NOC(C)(C(=O)Nc4cnn(C)c4)C3)cc2c1` (stereo not shown) [compound 462], the “log P” value in series [1] (setting [5]) was 1.98[a]. Further, the “% of efficacy (protection)” value in series [2] is 98%; in series [3], 100%; in series [4], 98%.

`C#Cc1cnc2ccc(C3=NOC(C)(C(=O)NOC(C)C4CC4)C3)cc2c1` (stereo not shown) [compound 471]: in series [1] (setting [5]), the “log P” value is 2.43[a]. Also, the “% of efficacy (protection)” value in series [2] is reported as 89%; in series [3] it was 97%; in series [4] it was 98%.

For the compound `C#Cc1cnc2ccc(C3=NOC(OC)(C(=O)N(O)C(C)C)C3)cc2c1` (stereo not shown) [compound 475], in series [1] (setting [5]), the “log P” value is 2.08[a]. Besides, the “% of efficacy (protection)” value came to 100% in series [2], 83% in series [3] and 88% in series [4].

As for `COC1(C(=O)NCC2COC(C)(C)O2)CC(c2ccc3ncc(I)cc3c2)=NO1` (stereo not shown) [compound 483], the “log P” value in series [1] (setting [5]) was 2.73[a]. Further, the “% of efficacy (protection)” value in series [2], in series [3] and in series [4] was 100% in each case.

Regarding `COC1(C(=O)NCC2COC(C)(C)O2)CC(c2ccc3ncc(Br)cc3c2)=NO1` (stereo not shown) [compound 496], the “log P” value in series [1] (setting [5]) was 2.62[a]. Moreover, the entries for the “% of efficacy (protection)” value in series [2], in series [3] and in series [4] were 99%, 100% and 100%, respectively.

By chromatographic logP is commonly meant lipophilicity estimated from chromatographic retention. A low value points to a more hydrophilic compound.
